Laboratory results taken from patent US20080021026A1, “BENZOTHIOPHENE INHIBITORS OF RHO KINASE” (priority 2006, published 2008).
Like-named read-outs stand apart in the source and are kept apart here.

Legend:
[1] = target: T1, recombinant N-terminal GST-tagged human Rho kinase 2 (ROCK2, amino acids 1-552) (Homo sapiens, UniProt O75116); assay: In vitro Rho kinase assay (luciferase-based ATP consumption), ROCK2; format: biochemical
T1 construct: ROCK2, amino acids 1-552; purchased Invitrogen Inc. PV3759
Summary of the method: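 Luciferase-based luminescence of leftover ATP after 2 h at 30 °C, where inhibition raises signal, reports activity of GST-tagged ROCK2 (aa 1-552) at 0.82 μg/ml. Conditions: S6 peptide 100 μg/ml, […], pH 7.5 Tris buffer. Results given as percent of H-1152P control activity.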

[2] = target: T2, recombinant N-terminal GST-tagged human Rho kinase 1 (ROCK1, amino acids 1-535) (Homo sapiens, UniProt Q13464); assay: In vitro Rho kinase assay (luciferase-based ATP consumption), ROCK1; format: biochemical
T2 construct: ROCK1, amino acids 1-535; purchased Invitrogen Inc. PV-3691
Summary of the method: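 ATP depletion measured by firefly luciferase luminescence after 2 h at 30 °C, with inhibition raising signal and activity expressed relative to H-1152P. Reaction: 0.82 μg/ml recombinant GST-tagged ROCK1 (aa 1-535), S6 peptide 100 μg/ml, […], pH 7.5 Tris buffer.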

[3] = recombinant GST-tagged human ROCK2, luciferase-based ATP consumption, read-out: ROCK2 IC50
[4] = recombinant GST-tagged human ROCK1, luciferase-based ATP consumption, read-out: ROCK1 IC50
[5] = ROCK2 IC50, recombinant GST-tagged human ROCK2, luciferase-based ATP consumption
[6] = ROCK1 IC50, recombinant GST-tagged human ROCK1, luciferase-based ATP consumption

T1 sequence (O75116 1-552): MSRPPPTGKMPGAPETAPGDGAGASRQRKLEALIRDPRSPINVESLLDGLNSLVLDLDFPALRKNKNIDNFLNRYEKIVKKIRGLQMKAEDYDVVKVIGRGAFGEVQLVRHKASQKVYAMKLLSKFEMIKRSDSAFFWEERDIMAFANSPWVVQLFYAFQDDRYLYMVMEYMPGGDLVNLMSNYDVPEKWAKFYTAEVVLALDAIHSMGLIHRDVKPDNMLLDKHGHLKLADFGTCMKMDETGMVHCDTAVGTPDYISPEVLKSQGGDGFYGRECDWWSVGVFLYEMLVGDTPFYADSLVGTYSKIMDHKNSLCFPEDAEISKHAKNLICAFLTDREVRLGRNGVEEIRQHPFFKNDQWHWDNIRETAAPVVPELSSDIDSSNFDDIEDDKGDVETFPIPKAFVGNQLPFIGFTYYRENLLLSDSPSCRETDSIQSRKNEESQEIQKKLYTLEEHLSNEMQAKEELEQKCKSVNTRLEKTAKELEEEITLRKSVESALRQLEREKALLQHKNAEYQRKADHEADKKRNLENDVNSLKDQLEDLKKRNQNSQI
T2 sequence (Q13464 1-535): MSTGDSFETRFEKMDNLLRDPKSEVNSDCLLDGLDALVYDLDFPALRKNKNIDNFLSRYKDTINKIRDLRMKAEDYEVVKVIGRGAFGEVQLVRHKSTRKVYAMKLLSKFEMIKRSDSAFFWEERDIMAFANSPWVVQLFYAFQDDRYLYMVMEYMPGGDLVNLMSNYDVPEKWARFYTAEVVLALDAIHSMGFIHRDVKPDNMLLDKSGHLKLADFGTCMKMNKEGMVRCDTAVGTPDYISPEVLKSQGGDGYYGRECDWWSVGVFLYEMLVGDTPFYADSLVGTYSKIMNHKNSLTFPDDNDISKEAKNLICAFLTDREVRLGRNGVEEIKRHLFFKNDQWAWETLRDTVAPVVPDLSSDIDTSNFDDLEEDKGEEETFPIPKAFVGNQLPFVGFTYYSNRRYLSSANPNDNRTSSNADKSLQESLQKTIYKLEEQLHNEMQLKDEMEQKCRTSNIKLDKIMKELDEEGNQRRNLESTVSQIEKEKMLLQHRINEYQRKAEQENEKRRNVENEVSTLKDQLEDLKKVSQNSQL

Cc1c(-c2ccnc(N)n2)sc2ccc(Cl)cc12 [Example 1, 4-(5-Chloro-3-methylbenzo[b]thiophen-2-yl)pyrimidin-2-amine]
IC50 [1, 3]: < 5 µM | IC50 [2, 4]: < 5 µM

COc1cccc(OC)c1C(=O)NCc1ccc2sc(-c3ccnc(N)n3)c(C)c2c1 [Example 220, COc1cccc(OC)c1C(═O)NCc2ccc3sc(c(C)c3c2)-c4ccnc(N)n4]
IC50 [1, 3]: < 5 µM | IC50 [2, 4]: > 5 µM

Cc1c(-c2ccnc(N)n2)sc2ccc(CNC(=O)C(C)NC(=O)OC(C)(C)C)cc12 (centres unmarked) [Example 241, C[C](NC(═O)OC(C)(C)C)C(═O)NCc1ccc2sc(c(C)c2c1)-c3ccnc(N)n3]
IC50 [1, 3]: > 5 µM | IC50 [2, 4]: < 5 µM

Cc1c(-c2ccnc(N)n2)sc2ccc(CNC(=O)c3cc(O)ccc3O)cc12 [Example 142, Cc1c(sc2ccc(CNC(═O)c3cc(O)ccc3O)cc12)-c4ccnc(N)n4]
IC50 [1, 3]: < 5 µM | IC50 [2, 4]: > 5 µM

Cc1c(-c2ccnc(N)n2)sc2ccc(CNC(=O)c3ccc(Br)cc3)cc12 [Example 263, Cc1c(sc2ccc(CNC(═O)c3ccc(Br)cc3)cc12)-c4ccnc(N)n4]
IC50 [1, 3]: < 5 µM | IC50 [2, 4]: > 5 µM

Cc1c(-c2ccnc(N)n2)sc2ccc(CNC(=O)c3cccc(F)c3)cc12 [Example 124, Cc1c(sc2ccc(CNC(═O)c3cccc(F)c3)cc12)-c4ccnc(N)n4]
IC50 [1, 3]: < 5 µM | IC50 [2, 4]: > 5 µM

Cc1c(-c2ccnc(N)n2)sc2ccc(CNC(=O)c3cc(F)c(F)cc3Cl)cc12 [Example 252, Cc1c(sc2ccc(CNC(═O)c3cc(F)c(F)cc3Cl)cc12)-c4ccnc(N)n4]
IC50 [1, 5]: < 5 µM | IC50 [2, 6]: < 5 µM

Cc1c(-c2ccnc(N)n2)sc2ccc(CNC(=O)c3ccc(F)cc3F)cc12 [Example 155, Cc1c(sc2ccc(CNC(═O)c3ccc(F)cc3F)cc12)-c4ccnc(N)n4]
IC50 [1, 3]: < 5 µM | IC50 [2, 4]: > 5 µM

Cc1c(-c2ccnc(N)n2)sc2ccc(CNC(=O)c3c4ccccc4cc4ccccc34)cc12 [Example 297, Cc1c(sc2ccc(CNC(═O)c3c4ccccc4cc5ccccc35)cc12)-c6ccnc(N)n6]
IC50 [1, 3]: < 5 µM | IC50 [2, 4]: < 5 µM

Cc1c(-c2ccnc(N)n2)sc2ccc(Nc3cccc(NC(=O)c4ccc(O)cc4)c3)cc12 [Example 61, N-(3-(2-(2-Aminopyrimidin-4-yl)-3-methylbenzo[b]thiophen-5-ylamino)phenyl)-4-hydroxybenzamide]
IC50 [1, 3]: < 5 µM | IC50 [2, 4]: < 5 µM

Cc1nc(Br)sc1C(=O)NCc1ccc2sc(-c3ccnc(N)n3)c(C)c2c1 [Example 296, Cc1nc(Br)sc1C(═O)NCc2ccc3sc(c(C)c3c2)-c4ccnc(N)n4]
IC50 [1, 3]: < 5 µM | IC50 [2, 4]: > 5 µM

Cc1c(-c2ccnc(N)n2)sc2ccc(CNC(=O)c3ccc4c(c3)OCO4)cc12 [Example 172, Cc1c(sc2ccc(CNC(═O)c3ccc4OCOc4c3)cc12)-c5ccnc(N)n5]
IC50 [1, 3]: < 5 µM | IC50 [2, 4]: < 5 µM

Cc1c(-c2ccnc(N)n2)sc2ccc(CNC(=O)C=Cc3ccccc3C(F)(F)F)cc12 [Example 290, Cc1c(sc2ccc(CNC(═O)C═Cc3ccccc3C(F)(F)F)cc12)-c4ccnc(N)n4]
IC50 [1, 3]: > 5 µM | IC50 [2, 4]: > 5 µM

Cc1c(-c2ccnc(N)n2)sc2ccc(CNC(=O)c3ccccc3C(F)(F)F)cc12 [Example 243, Cc1c(sc2ccc(CNC(═O)c3ccccc3C(F)(F)F)cc12)-c4ccnc(N)n4]
IC50 [1, 3]: < 5 µM | IC50 [2, 4]: < 5 µM

Cc1ccccc1CCC(=O)NCc1ccc2sc(-c3ccnc(N)n3)c(C)c2c1 [Example 167, Cc1ccccc1CCC(═O)NCc2ccc3sc(c(C)c3c2)-c4ccnc(N)n4]
IC50 [1, 3]: < 5 µM | IC50 [2, 4]: > 5 µM

Cc1ccc(C(=O)NCc2ccc3sc(-c4ccnc(N)n4)c(C)c3c2)cc1C [Example 136, Cc1ccc(cc1C)C(═O)NCc2ccc3sc(c(C)c3c2)-c4ccnc(N)n4]
IC50 [1, 3]: > 5 µM | IC50 [2, 4]: > 5 µM

CCC(C)C(NC(=O)OC(C)(C)C)C(=O)NCc1ccc2sc(-c3ccnc(N)n3)c(C)c2c1 (centres unmarked) [Example 322, CCC(C)[C](NC(═O)OC(C)(C)C)C(═O)NCc1ccc2sc(c(C)c2c1)-c3ccnc(N)n3]
IC50 [1, 3]: > 5 µM | IC50 [2, 4]: < 5 µM

Cc1c(-c2ccnc(N)n2)sc2ccc(C(=O)N3CCC(N)C3)cc12 (centres unmarked) [Example 23, (2-(2-Aminopyrimidin-4-yl)-3-methylbenzo[b]thiophen-5-yl)(3-aminopyrrolidin-1-yl)methanone]
IC50 [1, 3]: < 5 µM | IC50 [2, 4]: < 5 µM

Cc1c(-c2ccnc(N)n2)sc2ccc(CNC(=O)c3cccc(Cl)c3Cl)cc12 [Example 245, Cc1c(sc2ccc(CNC(═O)c3cccc(Cl)c3Cl)cc12)-c4ccnc(N)n4]
IC50 [1, 5]: < 5 µM | IC50 [2, 6]: > 5 µM

Cc1c(-c2ccnc(N)n2)sc2ccc(Nc3cncc(O)c3)cc12 [Example 68, 5-(2-(2-Aminopyrimidin-4-yl)-3-methylbenzo[b]thiophen-5-ylamino)pyridin-3-ol]
IC50 [1, 3]: < 5 µM | IC50 [2, 4]: < 5 µM

Cc1c(-c2ccnc(N)n2)sc2ccc(CNC(=O)c3cc(F)c(F)c(O)c3F)cc12 [Example 248, Cc1c(sc2ccc(CNC(═O)c3cc(F)c(F)c(O)c3F)cc12)-c4ccnc(N)n4]
IC50 [1, 3]: < 5 µM | IC50 [2, 4]: < 5 µM

COc1ccc(Cc2ccc3sc(-c4ccnc(N)n4)c(C)c3c2)cc1 [Example 25, 4-(5-(4-Methoxybenzyl)-3-methylbenzo[b]thiophen-2-yl)pyrimidin-2-amine]
IC50 [1, 3]: > 5 µM | IC50 [2, 4]: > 5 µM

Cc1c(-c2ccnc(N)n2)sc2ccc(CNC(=O)c3cc(Cl)ccn3)cc12 [Example 151, Cc1c(sc2ccc(CNC(═O)c3cc(Cl)ccn3)cc12)-c4ccnc(N)n4]
IC50 [1, 3]: < 5 µM | IC50 [2, 4]: < 5 µM

COc1cccc(Oc2ccc3sc(-c4ccnc(N)n4)c(C)c3c2)c1 [Example 81, 4-(5-(3-Methoxyphenoxy)-3-methylbenzo[b]thiophen-2-yl)pyrimidin-2-amine]
IC50 [1, 3]: < 5 µM | IC50 [2, 4]: < 5 µM

COc1ccc(Cl)cc1C(=O)NCc1ccc2sc(-c3ccnc(N)n3)c(C)c2c1 [Example 232, COc1ccc(Cl)cc1C(═O)NCc2ccc3sc(c(C)c3c2)-c4ccnc(N)n4]
IC50 [1, 3]: < 5 µM | IC50 [2, 4]: > 5 µM

Cc1c(-c2ccnc(N)n2)sc2ccc(CNC(=O)CCc3ccccc3O)cc12 [Example 176, Cc1c(sc2ccc(CNC(═O)CCc3ccccc3O)cc12)-c4ccnc(N)n4]
IC50 [1, 3]: < 5 µM | IC50 [2, 4]: > 5 µM

COc1cc(C(=O)NCc2ccc3sc(-c4ccnc(N)n4)c(C)c3c2)cc(OC)c1O [Example 260, COc1cc(cc(OC)c1O)C(═O)NCc2ccc3sc(c(C)c3c2)-c4ccnc(N)n4]
IC50 [1, 3]: < 5 µM | IC50 [2, 4]: > 5 µM

Cc1c(-c2ccnc(N)n2)sc2ccc(CNC(=O)c3ccc(F)cc3Cl)cc12 [Example 194, Cc1c(sc2ccc(CNC(═O)c3ccc(F)cc3Cl)cc12)-c4ccnc(N)n4]
IC50 [1, 5]: < 5 µM | IC50 [2, 6]: > 5 µM

Cc1c(-c2ccnc(N)n2)sc2ccc(Nc3cccc(N)c3)cc12 [Example 57, N^1-(2-(2-Aminopyrimidin-4-yl)-3-methylbenzo[b]thiophen-5-yl)benzene-1,3-diamine]
IC50 [1, 3]: < 5 µM | IC50 [2, 4]: < 5 µM

Cc1c(-c2ccnc(N)n2)sc2ccc(CNC(=O)C3CCCN3C(=O)OC(C)(C)C)cc12 (centres unmarked) [Example 289, Cc1c(sc2ccc(CNC(═O)[C]3CCCN3C(═O)OC(C)(C)C)cc12)-c4ccnc(N)n4]
IC50 [1, 3]: > 5 µM | IC50 [2, 4]: < 5 µM

Cc1c(-c2ccnc(N)n2)sc2ccc(CNC(=O)c3ccncc3Cl)cc12 [Example 152, Cc1c(sc2ccc(CNC(═O)c3ccncc3Cl)cc12)-c4ccnc(N)n4]
IC50 [1, 5]: < 5 µM | IC50 [2, 6]: < 5 µM
